The values below come from ChEMBL document CHEMBL5131485, “Synthesis and biological activity evaluation of novel 2,6,9-trisubstituted purine conjugates as potential protein kinases inhibitors” (Bioorg Med Chem Lett, 2022).

Calls of active or inactive are those of the source. No cut-off for these calls is given here.

Assay [1] deals with Receptor-type tyrosine-protein kinase FLT3 (Homo sapiens, UniProt P36888, ITD).
Description: Inhibition of FLT3 ITD mutant (unknown origin)
For assay [2], the target named is Platelet-derived growth factor receptor alpha (Homo sapiens, UniProt P16234).
Chain of Platelet-derived growth factor receptor alpha (P16234 whole entry): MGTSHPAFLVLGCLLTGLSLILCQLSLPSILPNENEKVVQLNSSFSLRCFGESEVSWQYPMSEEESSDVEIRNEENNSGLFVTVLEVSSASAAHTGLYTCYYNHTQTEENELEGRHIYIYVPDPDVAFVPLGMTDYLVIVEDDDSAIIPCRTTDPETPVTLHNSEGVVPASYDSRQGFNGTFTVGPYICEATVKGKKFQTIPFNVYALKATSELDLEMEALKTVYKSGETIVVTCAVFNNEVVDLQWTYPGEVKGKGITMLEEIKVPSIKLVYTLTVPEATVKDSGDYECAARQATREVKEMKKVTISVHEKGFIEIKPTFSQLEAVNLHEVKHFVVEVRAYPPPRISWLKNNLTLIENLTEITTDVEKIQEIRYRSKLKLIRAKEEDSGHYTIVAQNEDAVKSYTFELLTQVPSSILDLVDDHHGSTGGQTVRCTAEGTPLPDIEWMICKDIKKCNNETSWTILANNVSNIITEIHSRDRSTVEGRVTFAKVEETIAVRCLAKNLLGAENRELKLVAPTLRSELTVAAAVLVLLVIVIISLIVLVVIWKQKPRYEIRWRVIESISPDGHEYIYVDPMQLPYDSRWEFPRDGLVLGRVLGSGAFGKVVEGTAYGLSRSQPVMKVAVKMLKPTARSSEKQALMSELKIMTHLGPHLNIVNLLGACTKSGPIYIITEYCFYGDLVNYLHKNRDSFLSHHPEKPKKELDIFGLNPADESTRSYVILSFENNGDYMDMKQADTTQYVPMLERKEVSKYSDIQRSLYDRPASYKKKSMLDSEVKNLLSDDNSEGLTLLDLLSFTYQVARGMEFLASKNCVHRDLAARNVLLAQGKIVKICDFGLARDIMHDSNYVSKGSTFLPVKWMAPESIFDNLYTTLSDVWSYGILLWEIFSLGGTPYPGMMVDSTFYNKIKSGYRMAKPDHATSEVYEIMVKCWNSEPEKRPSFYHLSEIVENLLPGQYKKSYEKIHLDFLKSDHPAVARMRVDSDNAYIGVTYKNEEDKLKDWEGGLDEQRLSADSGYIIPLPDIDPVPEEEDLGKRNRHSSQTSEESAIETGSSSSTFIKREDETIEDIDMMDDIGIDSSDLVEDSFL
Description: Inhibition of PDGFRalpha (unknown origin)
Assay [3] addresses Cyclin-dependent kinase 2 (Homo sapiens, UniProt P24941).
Description: Inhibition of CDK2 (unknown origin)
For assay [4], the system named is Receptor-type tyrosine-protein kinase FLT3 (Homo sapiens), P36888 [UNDEFINED MUTATION]. Particulars: MV4-11, dose 5-25 nM, time 1.0 hrs.
Chain of Receptor-type tyrosine-protein kinase FLT3 (Homo sapiens), P36888 [UNDEFINED MUTATION] (P36888 whole entry, looked up, change not shown): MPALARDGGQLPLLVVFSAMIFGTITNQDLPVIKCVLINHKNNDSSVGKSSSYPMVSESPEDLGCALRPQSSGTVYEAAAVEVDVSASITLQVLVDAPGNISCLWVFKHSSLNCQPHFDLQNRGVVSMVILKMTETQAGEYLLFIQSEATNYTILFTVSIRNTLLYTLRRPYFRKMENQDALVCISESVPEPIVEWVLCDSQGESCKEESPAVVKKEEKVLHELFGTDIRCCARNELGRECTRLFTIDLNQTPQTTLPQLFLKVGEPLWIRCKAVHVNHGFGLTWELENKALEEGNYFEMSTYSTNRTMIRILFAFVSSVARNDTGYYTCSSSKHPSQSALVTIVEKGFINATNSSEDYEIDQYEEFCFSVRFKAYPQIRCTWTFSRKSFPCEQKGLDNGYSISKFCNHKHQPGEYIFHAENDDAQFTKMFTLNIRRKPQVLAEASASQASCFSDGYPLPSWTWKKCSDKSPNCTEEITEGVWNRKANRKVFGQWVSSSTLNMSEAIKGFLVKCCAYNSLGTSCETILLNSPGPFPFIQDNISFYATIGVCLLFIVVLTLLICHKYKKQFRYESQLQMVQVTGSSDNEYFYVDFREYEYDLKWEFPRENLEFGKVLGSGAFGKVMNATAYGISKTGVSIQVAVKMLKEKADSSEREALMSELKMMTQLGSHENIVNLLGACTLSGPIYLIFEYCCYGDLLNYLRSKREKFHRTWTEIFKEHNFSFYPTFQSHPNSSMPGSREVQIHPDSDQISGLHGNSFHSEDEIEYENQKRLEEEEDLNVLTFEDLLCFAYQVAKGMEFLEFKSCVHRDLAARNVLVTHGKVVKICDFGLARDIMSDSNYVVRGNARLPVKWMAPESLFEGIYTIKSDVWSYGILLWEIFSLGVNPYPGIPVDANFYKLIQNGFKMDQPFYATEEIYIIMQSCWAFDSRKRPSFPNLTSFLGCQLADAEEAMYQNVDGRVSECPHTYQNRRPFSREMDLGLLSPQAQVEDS
The test system of assay [5] is MV4-11. In words: cells. Particulars: Homo sapiens.
Description: Antiproliferative activity against human MV4-11 cells expressing FLT3-ITD mutant
The test system of another assay is EOL1. Briefly: cells. Particulars: Homo sapiens.
The subject of the next assay is Kasumi 1. Briefly: cells. Particulars: Homo sapiens.
Another assay relates to K562. Briefly: cells. Conditions: Homo sapiens.
For assay [6], the system named is MV4-11. In kind it is functional, cell-based. Particulars: Homo sapiens, dose 1-125 nM, time 24.0 hrs.
The test system of assay [7] is Receptor-type tyrosine-protein kinase FLT3 (Homo sapiens), P36888 [UNDEFINED MUTATION]. Particulars: MV4-11, dose 5-25 nM, time 1.0 hrs. The source holds these as a separate data set.
The test system is the same in assay [8]. Particulars: MV4-11, dose 5-25 nM, time 1.0 hrs. This is another data set of the same source.

Chain of Receptor-type tyrosine-protein kinase FLT3 (P36888 whole entry, looked up, change not shown): as above
Description for EOL1: Antiproliferative activity against human EOL1 cells expressing IP1L1-PDGFRA fusion protein
Description for K562: Antiproliferative activity against human K562 cells
Description for Kasumi 1: Antiproliferative activity against human Kasumi 1 cells harboring N822K KIT mutant

For `NCCCNCCCCNC(=O)c1ccc(CNc2nc(N[C@H]3CC[C@H](N)CC3)nc3c2ncn3C2CCCC2)cc1`, the values for the IC50 in assay [1], in assay [2] and in [3] were 1310 nM, 19800 nM and 25 nM, respectively. The inhibition entry in assay [4] is “Active”. In addition, the GI50 (commonly the concentration that inhibits growth by half) came to 602 nM in the assay on MV4-11 [5], 799 nM in the assay on EOL1, 1920 nM with Kasumi 1 and 7190 nM in the assay with K562.

For the compound `NC(=O)c1ccc(Nc2nc(N[C@H]3CC[C@H](N)CC3)nc3c2ncn3C2CCCC2)cc1`, the IC50 (usually the concentration at which inhibition is half-maximal) in assay [1] was 2 nM; in assay [2] it was 17 nM; in assay [3], 4 nM. Also, in the assay on MV4-11 [6], the outcome was Active. Further, the inhibition entry in [4], in [7] and in assay [8] was “Active” throughout. In addition, the GI50 with MV4-11 [5] came out at 39 nM; in the assay on EOL1, 40 nM; with Kasumi 1, 4180 nM; with K562 it was 6130 nM.

For the compound `NCCCCNC(=O)c1ccc(CNc2nc(N[C@H]3CC[C@H](N)CC3)nc3c2ncn3C2CCCC2)cc1`, the values for the half-inhibitory concentration (IC50) in assay [1], in assay [2] and in assay [3] were 1650 nM, greater than 20000 nM and 27 nM, respectively. The inhibition result in [4] is “Active”. Further, the GI50 with MV4-11 [5] amounted to 577 nM; with EOL1, 676 nM; in the assay on Kasumi 1, 2560 nM; in the assay with K562, 8260 nM.

Consider `NCCCCNc1ccc(Nc2nc(N[C@H]3CC[C@H](N)CC3)nc3c2ncn3C2CCCC2)cc1`, for which the IC50 in assay [1] worked out at 4 nM; in [2], 153 nM; in [3], 17 nM. Also, the outcome in the assay on MV4-11 [6] was Active. Besides, the inhibition entry in assay [4], in assay [7] and in assay [8] was “Active” throughout. Besides, the GI50 was found to be 95 nM in the assay on MV4-11 [5], 171 nM in the assay on EOL1, 2740 nM with Kasumi 1 and 6300 nM in the assay on K562.

For the compound `N[C@H]1CC[C@H](Nc2nc(Nc3ccccc3)c3ncn(C4CCCC4)c3n2)CC1`, the IC50 in assay [1] worked out at 5 nM; in assay [2], 196 nM; in [3] it was 7 nM. Further, the result in the assay on MV4-11 [6] was Active. The inhibition result in assay [4], in assay [7] and in assay [8] was “Active” throughout. Also, the GI50 was 23 nM in the assay on MV4-11 [5], 41 nM with EOL1, 278 nM in the assay on Kasumi 1 and 2450 nM in the assay with K562.

`NCCCNCCCCNc1ccc(Nc2nc(N[C@H]3CC[C@H](N)CC3)nc3c2ncn3C2CCCC2)cc1`: the IC50 in assay [1] was found to be 6 nM; in assay [2] it was 219 nM; in assay [3] it was 21 nM. Besides, the outcome in the assay on MV4-11 [6] was Active. The inhibition entry in assay [4], in assay [7] and in assay [8] was “Active” throughout. In addition, the 50% growth inhibitory concentration (GI50) is 52 nM with MV4-11 [5], 60 nM with EOL1, 1850 nM in the assay on Kasumi 1 and 2780 nM with K562.

Take `NCCCNCCCCNC(=O)c1ccc(Nc2nc(N[C@H]3CC[C@H](N)CC3)nc3c2ncn3C2CCCC2)cc1`: the IC50 was 4 nM in assay [1], 41 nM in [2] and 19 nM in [3]. In addition, the result with MV4-11 [6] was Active. Besides, the inhibition entry in [4], in [7] and in assay [8] was “Active” in each case. For the same compound, the concentration for 50% growth inhibition (GI50) was 25 nM in the assay with MV4-11 [5], 17 nM with EOL1, 2910 nM in the assay with Kasumi 1 and 7370 nM with K562.

Turning to `NCCCNCCCCNCCCNc1ccc(Nc2nc(N[C@H]3CC[C@H](N)CC3)nc3c2ncn3C2CCCC2)cc1`, the IC50 in assay [1] stood at 10 nM; in [2], 203 nM; in assay [3], 31 nM. Besides, the inhibition entry in [4], in assay [7] and in [8] was “Active” throughout. Besides, the concentration for 50% growth inhibition (GI50) turned out to be 4 nM in the assay on MV4-11 [5], 11 nM in the assay with EOL1, 647 nM with Kasumi 1 and 896 nM in the assay on K562.

With `N[C@H]1CC[C@H](Nc2nc(NCc3ccccc3)c3ncn(C4CCCC4)c3n2)CC1`, the IC50 in [1] was 2510 nM; in assay [2] it was greater than 20000 nM. In addition, in assay [4], the inhibition entry was “Active”. Moreover, the GI50 in the assay on MV4-11 [5] came out at 1140 nM; in the assay on EOL1, 1170 nM; with Kasumi 1, 988 nM; in the assay with K562, 4220 nM.

In the case of `NCCCCNC(=O)c1ccc(Nc2nc(N[C@H]3CC[C@H](N)CC3)nc3c2ncn3C2CCCC2)cc1`, the IC50 in [1] was found to be 3 nM; in [2] it was 36 nM; in assay [3], 20 nM. Moreover, in the assay on MV4-11 [6], the result was Active. The inhibition entry in assay [4], in [7] and in [8] was “Active” in each case. Besides, the GI50 in the assay on MV4-11 [5] is 23 nM; in the assay with EOL1, 15 nM; in the assay on Kasumi 1, 4050 nM; in the assay on K562 it was 10800 nM.
